Measured values: publication PMC5341858, “Molecular regulation of apoptotic machinery and lipid metabolism by mTORC1/mTORC2 dual inhibitors in preclinical models of HER2+/PIK3CAmut breast cancer” (Oncotarget, 2016)

Legend:
[1] = test system: mTORC1 substrates P-S6K1(T389), P-S6(S235/6), P-4EBP1(T70) and mTORC2 substrate P-AKT(S473) in 786-O, U87MG and MDA-MB-453 cells; test: Immunoblotting of mTORC1 and mTORC2 biomarkers in tumor cells; format: cell-based
Protocol: For standard assay of inhibitor effects on cellular biomarker expression, cells were plated at pre-determined density in 6-well or 12-well culture plates for overnight, treated with inhibitors for the indicated doses and times. Cells were lysed in NuPAGE-LDS lysis buffer (Invitrogen) and immunoblotted with antibodies including P-S6K1(T389), S6, P-4EBP1(T70), 4EBP1, P-GSK3(S21/9), GSK3, cyclin D1, Raptor, Rictor, P-ACL(S455), ACL, cleaved-PARP (Cell Signaling Technology); P-S6(S235/6), AKT(S473), AKT, Bim (Abcam-Epitomics); c-Myc (Santa Cruz); Mcl-1 (Affinity); CPT1A (Proteintech); β-actin and GAPDH (Bioworld).

CDK11 = target: T1, CDK11 (Homo sapiens, UniProt Q9BWU1); test: KINOMEscan binding assay; conditions: 1000 nM, percent control relative to vehicle
T1 construct: purchased DiscoveRx KINOMEscan
Excerpt: (§1) IC50 values were generated using Graphpad PRISM 5 software.

MKNK1 = target: T2, MKNK1 (Homo sapiens, UniProt Q9BUB5); test: KINOMEscan binding assay; conditions: 1000 nM, percent control relative to vehicle
T2 construct: purchased DiscoveRx KINOMEscan
Excerpt: as §1

AKT1 = target: T3, AKT1 (Homo sapiens, UniProt P31749); test: KINOMEscan binding assay; conditions: 1000 nM, percent control relative to vehicle
T3 construct: purchased DiscoveRx KINOMEscan
Excerpt: as §1

AXL = target: T4, AXL (Homo sapiens, UniProt P30530); test: KINOMEscan binding assay; conditions: 1000 nM, percent control relative to vehicle
T4 construct: purchased DiscoveRx KINOMEscan
Excerpt: as §1

RAF1 = target: T5, RAF1 (Homo sapiens, UniProt P04049); test: KINOMEscan binding assay; conditions: 1000 nM, percent control relative to vehicle
T5 construct: purchased DiscoveRx KINOMEscan
Excerpt: as §1

IKK-beta = target: T6, IKK-beta (Homo sapiens, UniProt O14920); test: KINOMEscan binding assay; conditions: 1000 nM, percent control relative to vehicle
T6 construct: purchased DiscoveRx KINOMEscan
Excerpt: as §1

ACVR1B = target: T7, ACVR1B (Homo sapiens, UniProt P36896); test: KINOMEscan binding assay; conditions: 1000 nM, percent control relative to vehicle
T7 construct: purchased DiscoveRx KINOMEscan
Excerpt: as §1

JNK1 = target: T8, JNK1 (Homo sapiens, UniProt P45983); test: KINOMEscan binding assay; conditions: 1000 nM, percent control relative to vehicle
T8 construct: purchased DiscoveRx KINOMEscan
Excerpt: as §1

MKNK2 = target: T9, MKNK2 (Homo sapiens, UniProt Q9HBH9); test: KINOMEscan binding assay; conditions: 1000 nM, percent control relative to vehicle
T9 construct: purchased DiscoveRx KINOMEscan
Excerpt: as §1

AURKB = target: T10, AURKB (Homo sapiens, UniProt Q96GD4); test: KINOMEscan binding assay; conditions: 1000 nM, percent control relative to vehicle
T10 construct: purchased DiscoveRx KINOMEscan
Excerpt: as §1

[2] = target: T11, JAK2 (JH1domain-catalytic) (Homo sapiens, UniProt O60674); test: KINOMEscan binding assay; conditions: 1000 nM, percent control relative to vehicle
T11 construct: JAK2 (JH1domain-catalytic); purchased DiscoveRx KINOMEscan
Excerpt: as §1

MARK3 = target: T12, MARK3 (Homo sapiens, UniProt P27448); test: KINOMEscan binding assay; conditions: 1000 nM, percent control relative to vehicle
T12 construct: purchased DiscoveRx KINOMEscan
Excerpt: as §1

ULK2 = target: T13, ULK2 (Homo sapiens, UniProt Q8IYT8); test: KINOMEscan binding assay; conditions: 1000 nM, percent control relative to vehicle
T13 construct: purchased DiscoveRx KINOMEscan
Excerpt: as §1

CDK7 = target: T14, CDK7 (Homo sapiens, UniProt P50613); test: KINOMEscan binding assay; conditions: 1000 nM, percent control relative to vehicle
T14 construct: purchased DiscoveRx KINOMEscan
Excerpt: as §1

CDK9 = target: T15, CDK9 (Homo sapiens, UniProt P50750); test: KINOMEscan binding assay; conditions: 1000 nM, percent control relative to vehicle
T15 construct: purchased DiscoveRx KINOMEscan
Excerpt: as §1

PDPK1 = target: T16, PDPK1 (Homo sapiens, UniProt O15530); test: KINOMEscan binding assay; conditions: 1000 nM, percent control relative to vehicle
T16 construct: purchased DiscoveRx KINOMEscan
Excerpt: as §1

PIK3CB = PIK3CB (Homo sapiens, UniProt P42338); test: KINOMEscan binding assay
Excerpt: as §1

DYRK1B = target: T17, DYRK1B (Homo sapiens, UniProt Q9Y463); test: KINOMEscan binding assay; conditions: 1000 nM, percent control relative to vehicle
T17 construct: purchased DiscoveRx KINOMEscan
Excerpt: as §1

IKK-alpha = target: T18, IKK-alpha (Homo sapiens, UniProt O15111); test: KINOMEscan binding assay; conditions: 1000 nM, percent control relative to vehicle
T18 construct: purchased DiscoveRx KINOMEscan
Excerpt: as §1

PRKCE = target: T19, PRKCE (Homo sapiens, UniProt Q02156); test: KINOMEscan binding assay; conditions: 1000 nM, percent control relative to vehicle
T19 construct: purchased DiscoveRx KINOMEscan
Excerpt: as §1

ERK1 = target: T20, ERK1 (Homo sapiens, UniProt P27361); test: KINOMEscan binding assay; conditions: 1000 nM, percent control relative to vehicle
T20 construct: purchased DiscoveRx KINOMEscan
Excerpt: as §1

ADCK3 = target: T21, ADCK3 (Homo sapiens, UniProt Q8NI60); test: KINOMEscan binding assay; conditions: 1000 nM, percent control relative to vehicle
T21 construct: purchased DiscoveRx KINOMEscan
Excerpt: as §1

ABL1-nonphosphorylated = target: T22, ABL1-nonphosphorylated (Homo sapiens, UniProt P00519); test: KINOMEscan binding assay; conditions: 1000 nM, percent control relative to vehicle
T22 construct: purchased DiscoveRx KINOMEscan
Excerpt: as §1

EGFR (L858R) = target: T23, EGFR (L858R) (Homo sapiens, UniProt P00533, L858R); test: KINOMEscan binding assay; conditions: 1000 nM, percent control relative to vehicle
T23 construct: purchased DiscoveRx KINOMEscan
Excerpt: as §1

KIT = target: T24, KIT (Homo sapiens, UniProt P10721); test: KINOMEscan binding assay; conditions: 1000 nM, percent control relative to vehicle
T24 construct: purchased DiscoveRx KINOMEscan
Excerpt: as §1

TIE2 = target: T25, TIE2 (Homo sapiens, UniProt Q02763); test: KINOMEscan binding assay; conditions: 1000 nM, percent control relative to vehicle
T25 construct: purchased DiscoveRx KINOMEscan
Excerpt: as §1

ERBB4 = target: T26, ERBB4 (Homo sapiens, UniProt Q15303); test: KINOMEscan binding assay; conditions: 1000 nM, percent control relative to vehicle
T26 construct: purchased DiscoveRx KINOMEscan
Excerpt: as §1

YANK3 = target: T27, YANK3 (Homo sapiens, UniProt Q86UX6); test: KINOMEscan binding assay; conditions: 1000 nM, percent control relative to vehicle
T27 construct: purchased DiscoveRx KINOMEscan
Excerpt: as §1

TGFBR1 = target: T28, TGFBR1 (Homo sapiens, UniProt P36897); test: KINOMEscan binding assay; conditions: 1000 nM, percent control relative to vehicle
T28 construct: purchased DiscoveRx KINOMEscan
Excerpt: as §1

EPHA2 = target: T29, EPHA2 (Homo sapiens, UniProt P29317); test: KINOMEscan binding assay; conditions: 1000 nM, percent control relative to vehicle
T29 construct: purchased DiscoveRx KINOMEscan
Excerpt: as §1

RET = target: T30, RET (Homo sapiens, UniProt P07949); test: KINOMEscan binding assay; conditions: 1000 nM, percent control relative to vehicle
T30 construct: purchased DiscoveRx KINOMEscan
Excerpt: as §1

KIT (V559D, T670I) = target: T31, KIT (V559D, T670I) (Homo sapiens, UniProt P10721, T670I/V559D); test: KINOMEscan binding assay; conditions: 1000 nM, percent control relative to vehicle
T31 construct: purchased DiscoveRx KINOMEscan
Excerpt: as §1

T8 sequence (P45983 whole entry): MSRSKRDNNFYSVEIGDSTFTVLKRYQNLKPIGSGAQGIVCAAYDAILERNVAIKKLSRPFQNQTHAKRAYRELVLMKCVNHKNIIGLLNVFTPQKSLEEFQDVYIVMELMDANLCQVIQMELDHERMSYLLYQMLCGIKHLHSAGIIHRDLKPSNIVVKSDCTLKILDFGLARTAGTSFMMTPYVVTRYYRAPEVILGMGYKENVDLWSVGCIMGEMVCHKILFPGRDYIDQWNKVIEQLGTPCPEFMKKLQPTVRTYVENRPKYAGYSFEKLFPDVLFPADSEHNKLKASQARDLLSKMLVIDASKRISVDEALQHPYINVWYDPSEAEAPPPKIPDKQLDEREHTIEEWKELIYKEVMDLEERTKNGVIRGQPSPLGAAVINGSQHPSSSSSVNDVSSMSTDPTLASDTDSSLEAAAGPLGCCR
T24 sequence (P10721 26-976): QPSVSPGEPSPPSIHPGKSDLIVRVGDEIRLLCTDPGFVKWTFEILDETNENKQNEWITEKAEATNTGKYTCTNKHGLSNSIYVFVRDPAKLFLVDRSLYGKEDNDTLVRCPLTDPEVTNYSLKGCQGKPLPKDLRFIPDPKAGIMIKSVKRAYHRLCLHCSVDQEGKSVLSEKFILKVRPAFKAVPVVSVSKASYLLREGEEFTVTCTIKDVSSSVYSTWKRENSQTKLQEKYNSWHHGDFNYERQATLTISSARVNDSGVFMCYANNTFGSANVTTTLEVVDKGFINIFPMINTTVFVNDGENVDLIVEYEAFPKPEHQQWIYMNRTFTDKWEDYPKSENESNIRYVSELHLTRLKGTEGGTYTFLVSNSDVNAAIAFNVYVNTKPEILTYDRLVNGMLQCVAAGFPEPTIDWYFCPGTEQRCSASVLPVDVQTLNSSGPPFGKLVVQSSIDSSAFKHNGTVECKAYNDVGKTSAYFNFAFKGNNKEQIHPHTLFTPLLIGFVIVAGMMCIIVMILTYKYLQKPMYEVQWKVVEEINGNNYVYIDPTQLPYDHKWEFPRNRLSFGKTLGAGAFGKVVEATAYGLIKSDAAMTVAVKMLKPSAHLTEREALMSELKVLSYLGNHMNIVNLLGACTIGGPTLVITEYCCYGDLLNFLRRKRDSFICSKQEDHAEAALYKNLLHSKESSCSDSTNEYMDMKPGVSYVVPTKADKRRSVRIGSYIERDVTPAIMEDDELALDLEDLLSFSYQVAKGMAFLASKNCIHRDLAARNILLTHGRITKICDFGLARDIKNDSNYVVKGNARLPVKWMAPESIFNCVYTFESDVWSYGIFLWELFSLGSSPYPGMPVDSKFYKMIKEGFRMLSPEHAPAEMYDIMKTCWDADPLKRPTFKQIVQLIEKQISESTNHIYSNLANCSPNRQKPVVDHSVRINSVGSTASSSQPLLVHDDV
T26 sequence (Q15303 26-1308): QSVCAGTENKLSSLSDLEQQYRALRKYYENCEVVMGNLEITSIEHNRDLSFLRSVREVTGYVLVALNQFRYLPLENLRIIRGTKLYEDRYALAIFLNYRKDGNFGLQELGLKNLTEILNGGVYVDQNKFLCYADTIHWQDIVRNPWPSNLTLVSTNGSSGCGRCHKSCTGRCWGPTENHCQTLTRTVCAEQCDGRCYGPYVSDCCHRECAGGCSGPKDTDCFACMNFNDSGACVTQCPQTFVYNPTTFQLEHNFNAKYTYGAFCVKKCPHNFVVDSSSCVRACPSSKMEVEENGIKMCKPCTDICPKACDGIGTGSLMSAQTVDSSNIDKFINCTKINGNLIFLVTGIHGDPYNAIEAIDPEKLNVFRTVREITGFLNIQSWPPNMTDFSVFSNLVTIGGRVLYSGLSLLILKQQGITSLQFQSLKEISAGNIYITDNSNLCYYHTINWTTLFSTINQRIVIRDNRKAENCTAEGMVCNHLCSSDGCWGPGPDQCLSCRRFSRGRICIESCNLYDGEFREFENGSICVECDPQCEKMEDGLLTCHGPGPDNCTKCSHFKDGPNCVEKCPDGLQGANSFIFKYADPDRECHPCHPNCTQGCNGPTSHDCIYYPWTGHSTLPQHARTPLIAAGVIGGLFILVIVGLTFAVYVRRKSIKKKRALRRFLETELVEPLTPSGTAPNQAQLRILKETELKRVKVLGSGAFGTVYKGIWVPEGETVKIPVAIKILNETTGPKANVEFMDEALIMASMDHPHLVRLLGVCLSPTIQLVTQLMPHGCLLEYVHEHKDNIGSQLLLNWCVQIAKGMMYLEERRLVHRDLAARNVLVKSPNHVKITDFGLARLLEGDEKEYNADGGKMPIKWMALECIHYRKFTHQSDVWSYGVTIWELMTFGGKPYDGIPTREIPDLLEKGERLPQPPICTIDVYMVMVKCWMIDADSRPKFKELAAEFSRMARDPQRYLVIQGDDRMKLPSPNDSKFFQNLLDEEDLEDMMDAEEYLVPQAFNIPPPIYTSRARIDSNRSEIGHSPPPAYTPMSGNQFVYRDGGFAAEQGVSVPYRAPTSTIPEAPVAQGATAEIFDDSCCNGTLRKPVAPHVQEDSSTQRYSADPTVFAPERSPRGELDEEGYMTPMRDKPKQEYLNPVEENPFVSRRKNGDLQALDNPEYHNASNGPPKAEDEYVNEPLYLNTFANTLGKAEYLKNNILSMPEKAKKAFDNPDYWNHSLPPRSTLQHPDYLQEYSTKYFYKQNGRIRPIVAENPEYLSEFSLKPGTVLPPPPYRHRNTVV
T3 sequence (P31749 whole entry): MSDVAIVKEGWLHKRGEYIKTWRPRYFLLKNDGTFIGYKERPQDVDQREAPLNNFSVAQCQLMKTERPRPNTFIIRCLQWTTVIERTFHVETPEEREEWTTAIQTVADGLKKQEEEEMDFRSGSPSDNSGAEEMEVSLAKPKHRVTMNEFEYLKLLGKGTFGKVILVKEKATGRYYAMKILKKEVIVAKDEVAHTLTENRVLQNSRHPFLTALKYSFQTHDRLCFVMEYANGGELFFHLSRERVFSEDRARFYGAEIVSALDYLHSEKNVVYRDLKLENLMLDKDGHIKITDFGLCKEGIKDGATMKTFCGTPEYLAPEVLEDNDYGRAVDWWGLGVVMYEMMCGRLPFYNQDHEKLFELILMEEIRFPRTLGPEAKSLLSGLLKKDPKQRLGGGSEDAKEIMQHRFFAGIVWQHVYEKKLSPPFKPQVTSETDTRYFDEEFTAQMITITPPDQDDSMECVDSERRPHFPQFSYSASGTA
T13 sequence (Q8IYT8 whole entry): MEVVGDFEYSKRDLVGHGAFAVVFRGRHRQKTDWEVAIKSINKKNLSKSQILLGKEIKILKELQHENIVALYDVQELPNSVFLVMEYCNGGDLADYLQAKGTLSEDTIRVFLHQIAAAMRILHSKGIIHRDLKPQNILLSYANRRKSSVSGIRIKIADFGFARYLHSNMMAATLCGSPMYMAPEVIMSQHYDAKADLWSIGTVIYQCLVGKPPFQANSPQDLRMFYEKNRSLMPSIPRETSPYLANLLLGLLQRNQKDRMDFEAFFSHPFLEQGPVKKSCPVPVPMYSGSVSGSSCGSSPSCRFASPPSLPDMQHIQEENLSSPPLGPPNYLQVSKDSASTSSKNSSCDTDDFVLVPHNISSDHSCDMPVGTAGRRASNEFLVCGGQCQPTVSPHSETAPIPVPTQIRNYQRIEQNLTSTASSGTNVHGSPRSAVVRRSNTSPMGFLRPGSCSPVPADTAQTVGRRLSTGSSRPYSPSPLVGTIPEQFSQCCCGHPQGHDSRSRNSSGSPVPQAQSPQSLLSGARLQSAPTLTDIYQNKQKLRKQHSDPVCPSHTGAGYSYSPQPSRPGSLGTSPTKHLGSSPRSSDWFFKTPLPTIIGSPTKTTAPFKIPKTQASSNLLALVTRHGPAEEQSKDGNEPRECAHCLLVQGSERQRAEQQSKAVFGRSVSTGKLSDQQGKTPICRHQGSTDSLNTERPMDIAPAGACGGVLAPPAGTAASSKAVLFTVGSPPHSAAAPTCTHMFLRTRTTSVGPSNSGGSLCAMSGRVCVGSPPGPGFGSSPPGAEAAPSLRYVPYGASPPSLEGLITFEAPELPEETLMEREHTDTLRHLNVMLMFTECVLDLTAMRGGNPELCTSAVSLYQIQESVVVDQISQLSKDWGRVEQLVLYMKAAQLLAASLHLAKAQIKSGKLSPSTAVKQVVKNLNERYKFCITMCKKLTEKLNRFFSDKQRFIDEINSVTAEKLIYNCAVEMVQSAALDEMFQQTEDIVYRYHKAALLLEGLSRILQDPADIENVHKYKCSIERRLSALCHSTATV
T15 sequence (P50750 whole entry): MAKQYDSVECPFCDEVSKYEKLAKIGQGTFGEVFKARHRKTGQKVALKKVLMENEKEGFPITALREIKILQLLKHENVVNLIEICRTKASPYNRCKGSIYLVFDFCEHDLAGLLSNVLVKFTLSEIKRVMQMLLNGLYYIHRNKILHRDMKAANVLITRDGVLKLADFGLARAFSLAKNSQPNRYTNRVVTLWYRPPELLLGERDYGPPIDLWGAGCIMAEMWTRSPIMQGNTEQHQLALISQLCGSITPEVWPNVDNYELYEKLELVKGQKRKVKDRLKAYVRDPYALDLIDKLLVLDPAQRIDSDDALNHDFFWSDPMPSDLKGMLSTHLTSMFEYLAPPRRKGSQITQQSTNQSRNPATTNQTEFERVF
T31 sequence (P10721 26-976 V559D/T670I): as the sequence (P10721 26-976) above, with V534D, T645I counted along it
T7 sequence (P36896 24-505): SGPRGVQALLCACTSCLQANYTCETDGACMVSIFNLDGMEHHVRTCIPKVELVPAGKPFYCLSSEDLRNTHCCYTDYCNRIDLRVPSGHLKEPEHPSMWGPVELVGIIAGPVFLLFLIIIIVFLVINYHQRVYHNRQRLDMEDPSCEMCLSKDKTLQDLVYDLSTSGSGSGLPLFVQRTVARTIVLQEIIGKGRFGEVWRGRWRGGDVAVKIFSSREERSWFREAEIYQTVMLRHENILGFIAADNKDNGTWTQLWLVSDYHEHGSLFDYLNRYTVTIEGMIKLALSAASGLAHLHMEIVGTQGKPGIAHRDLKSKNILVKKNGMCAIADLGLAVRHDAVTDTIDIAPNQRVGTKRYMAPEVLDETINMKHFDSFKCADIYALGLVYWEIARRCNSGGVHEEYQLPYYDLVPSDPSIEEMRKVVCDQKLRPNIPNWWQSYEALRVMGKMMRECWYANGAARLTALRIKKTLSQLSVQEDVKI

SMILES: CNC(=O)c1cccc(-c2ccc3c(N4C5CCC4COC5)nc(N4CCOC[C@@H]4C)nc3n2)c1 [MTI-31]
- IC50 ([1]; read-out: concentration achieving 50% inhibition of mTORC1 and mTORC2 substrates, 786-O, U87MG and MDA-MB-453 cells, 6 h treatment): ≤ 120 nM
- EC50 ([1]; several relevant tumor models (cells), read-out: EC50, inhibition of mTORC1/mTORC2 signaling): ≤ 120 nM
- % Control (CDK11): 100%
- % Control (MKNK1): 90%
- % Control (AKT1): 100%
- % Control (AXL): 97%
- % Control (RAF1): 82%
- % Control (IKK-beta): 69%
- % Control (ACVR1B): 86%
- % Control (JNK1): 81%
- % Control (MKNK2): 100%
- % Control (AURKB): 80%
- % Control [2]: 88%
- % Control (MARK3): 71%
- % Control (ULK2): 80%
- % Control (CDK7): 99%
- % Control (CDK9): 90%
- % Control (PDPK1): 97%
- Kd (PIK3CB): > 1000 nM
- % Control (DYRK1B): 100%
- % Control (IKK-alpha): 82%
- % Control (PRKCE): 91%
- % Control (ERK1): 100%
- % Control (ADCK3): 97%
- % Control (ABL1-nonphosphorylated): 52%
- % Control (EGFR (L858R)): 100%
- % Control (KIT): 100%
- % Control (TIE2): 100%
- % Control (ERBB4): 100%
- % Control (YANK3): 85%
- % Control (TGFBR1): 93%
- % Control (EPHA2): 98%
- % Control (RET): 100%
- % Control (KIT (V559D, T670I)): 100%
